Reference: patent US4526787A, “N-heterocyclic retinoic acid analogues” (SRI International, priority 1983, dated 1985)

Key:
[1] = tested on: Hamster Tracheal Organ Culture; assay: Tracheal organ culture assay: reversal of keratinization; type: cell-based
Protocol: (§1) The ODC assay measures a compound's ability to prevent the induction of ODC. The tracheal organ culture assay measures a compound's ability to reverse keratinization.
The tracheal organ culture assay is carried out as follows. Tracheas are taken from hamsters that are in very early stages of vitamin A deficiency and placed in organ culture. At the time of culture, the animals are still gaining weight; the tracheal epithelium is generally low columnar or cuboidal, with only occasional patches of squamous metaplasia. Each trachea is opened from the larynx to the carina along the membranous dorsal wall and cultured in a serum-free medium (CMRL-1066; with crystalline bovine insulin, 0.1 μg/ml; hydrocortisone hemisuccinate, 0.1 μg/ml; glutamine, 2 mM; penicillin, 100 units/ml; and streptomycin,100 μg/ml, added). Cultures are gassed with 50% oxygen, 45% nitrogen, and 5% CO2. The culture dishes are rocked at 35.5-36.0 degrees to allow the tracheas contact with both gas and medium. All tracheas are grown in medium containing no retinoid for the first 3 days. At the end of 3 days, some tracheas are harvested; almost of these tracheas have significant squamous metaplasia, and approximately 60% have keratinized lesions. The remaining tracheas are then divided into different groups which are treated with either: (1) retinoid dissolved in dimethylsulfoxide (final concentration of DMSO in culture medium is never greater than 0.1%) or (2) an equivalent amount of DMSO alone. Culture medium is changed three times a week, and all of the remaining tracheas are harvested at the end of 10 days in culture. Tracheas are fixed in 10% buffered formalin and embedded in paraffin. Cross sections of five micrometers are made through the mid-portion, stained with hematoxylin and eosin, and then scored with a microscope for the presence of keratin and keratohyaline granules, both of which are found in approximately 90% of control cultures that received no retinoid for the entire 10 day culture period.

[2] = tested on: Ornithine Decarboxylase; assay: ODC assay: inhibition of induction of ornithine decarboxylase by TPA in mouse skin; type: in vivo, mouse (female Charles River CD-1); settings: topical, 1 hour before TPA (17 nmol)
Protocol: as §1
The ODC assay is carried out as follows. Female Charles River CD-1 mice from Charles River Breeding Laboratories, Wilmington, Mass., are used (age 7 to 9 weeks). The dorsal hair of the mice is shaved 1 to 2 days before testing, and only mice showing no hair regrowth are used. […] The test compound, at one of three dose levels (1.7, 17 and 170 nmol), dissolved in 0.2 mL of acetone is applied 1 hour before the TPA treatment to the test groups; the control group is treated with acetone alone. The mice are killed by cervical dislocation five hours after TPA treatment. Determinations are done in triplicate.
The epidermis is obtained from the sacrificed animals. To obtain sufficient material, the dorsal skins from 2 to 3 mice in each treatment group are pooled. […]
The supernatant fraction remaining after centrifugation of the homogenate at 10,000×g for 30 seconds at 0° C. is used for the enzyme assay. Enzyme activity is determined using the microassay for ODC as described by Verma and Boutwell to measure the release of ^14 CO2 from DL-[1-^14 C]-ornithine (58 mCi/mmol) after incubation with the 10,000×g supernatant. […]

| Structure (SMILES) | Reversal of Keratinization in Hamster Tracheal Organ Culture, Active/Total Cultures ([1]; Conc 10^-8 M) | Reversal of Keratinization in Hamster Tracheal Organ Culture, Active/Total Cultures (%) ([1]; Conc 10^-8 M) | Reversal of Keratinization in Hamster Tracheal Organ Culture, Active/Total Cultures ([1]; Conc 10^-9 M) | Reversal of Keratinization in Hamster Tracheal Organ Culture, Active/Total Cultures (%) ([1]; Conc 10^-9 M) | Reversal of Keratinization in Hamster Tracheal Organ Culture, Active/Total Cultures ([1]; Conc 10^-10 M) | Reversal of Keratinization in Hamster Tracheal Organ Culture, Active/Total Cultures (%) ([1]; Conc 10^-10 M) | Reversal of Keratinization in Hamster Tracheal Organ Culture, Active/Total Cultures ([1]; Conc 10^-11 M) | Reversal of Keratinization in Hamster Tracheal Organ Culture, Active/Total Cultures (%) ([1]; Conc 10^-11 M) | Inhibition of Induction of Ornithine Decarboxylase by 12-O-Tetradecanoylphorbol-13-acetate in Mouse Skin, % Inhibition of Control ([2]; Dose 1.7 nmol) | Inhibition of Induction of Ornithine Decarboxylase by 12-O-Tetradecanoylphorbol-13-acetate in Mouse Skin, % Inhibition of Control ([2]; Dose 17 nmol) |
| --- | --- | --- | --- | --- | --- | --- | --- | --- | --- | --- |
| CCOC(=O)c1ccc(/C=C(C)/C=C/C2=C(C)CCCC2(C)C)cn1 [Example, (E)-1-(2-Carbethoxy-5-pyridyl)-2-methyl-4-(2,6,6-trimethyl-1-cyclohexen-1-yl)-1,3-butadiene] | 7/7 | 100% | 8/14 | 57% | 4/14 | 29% | 1/7 | 14% | 29% | 68% |
| CC1=C(/C=C/C(C)=C/C=C/C(C)=C/C(=O)O)C(C)(C)CCC1 [Retinoic Acid] | – | 100% | – | 88% | – | 52% | – | – | – | – |
